{"source": "patent US20080312160A1", "about": "“METHOD OF TREATING ENTERITIS, […], AND DIARRHEA FROM C. DIFFICILE WITH AN A2A ADENOSINE RECEPTOR AGONIST” (priority 2007, published 2008)", "key": {"[1]": {"system": "C. difficile toxin A-induced inflammation and secretion in rabbit ileal loops", "format": "in vivo, New Zealand white rabbits", "conditions": "rabbit, in vivo", "description": "Materials and Methods: New Zealand white rabbits weighing about 2 kg are fasted overnight. Under anesthesia with ketamine (60-80 mg/kg) and xylazine (5-10 mg/kg) administered intramuscularly, a midline abdominal incision is performed to expose the small bowel. After the ileum is flushed, four-cm loops are ligated using double ties with a 1 cm interval between loops. Each of the control loops is injected intraluminally with 1 mL solution of PBS with either C. difficile toxin A (toxin A) (Techlab, Blacksburg, Va.) at 10 μg/mL. Loops from another set of rabbits are treated with the adenosine A2A agonists, JMR 193 (ATL 193) (10 nM, 100 nM, or 1 uM doses) or ATL 146e ([…], 100 nM, 1 uM doses) immediately before the enterotoxin is administered. In addition a rabbit is treated with A2A agonist, ATL 313 (100 nM), alone and another rabbit treated with ATL 313 with alanyl-glutamine (25 mM). After 5 hours of incubation, the ligated small intestinal loops are removed. The length of each ligated ileal segment is measured and intraluminal fluid was quantified. Volume to length ratio, V/L (mL/cm), per loop is calculated. Samples of intestinal stained with hematoxylin-eosin and graded from 0 (none) to 4 (worst) based on the degree of mucosal disruption, increase in cellularity and intensity of vascular congestion."}, "[2]": {"system": "Toxin A-induced secretion in rabbit ileal loops", "experiment": "Rabbit ileal loops, toxin A-induced secretion (Example 3)", "format": "in vivo, New Zealand white rabbits"}, "[3]": {"system": "Toxin A-induced secretion in rabbit ileal loops", "experiment": "Rabbit ileal loops, toxin A-induced secretion (Example 3)", "format": "in vivo, New Zealand white rabbits", "text": "Rabbit Ileal Loops: The animal experiment protocol was approved by the Animal Care and Use Committee at the University of Virginia. Eight New Zealand white rabbits weighing between 2.5-3 kg were used for this experiment. Each rabbit was fasted overnight. On the day of the experiment, the rabbits were anesthetized intramuscularly using a ketamine and xylazine solution in a 2:1 ratio. An intravenous line was placed in the ear vein of each rabbit for administration of the adenosine analog, ATL 370 (Adenosine Therapeutics) or a phosphate buffered saline placebo (PBS). Once anesthetized, a midline abdominal incision was made and the ileum was exposed. A measured amount of ileum was injected with 5 mL of PBS to flush any remaining fecal material. After the ileum was flushed, 10 loops of 2.5-5 cm each were ligated using double ties, with 0.5-1 cm of space between each loop.\nOnce the bowel was exposed and ligated, each rabbit received a 250 μL IV injection of PBS (Toxin A and Toxin A/Alanyl glutamine groups) or 1.5 ug/250 μL of ATL 370 (Toxin A/Adenosine and Toxin A/Adenosine/Alanyl-glutamine groups). An additional dose of either PBS or ATL 370 was administered 2 hours after the first dose for a total of 2 doses. Each dose was followed by a 250-500 μL heparin saline injection to prevent the IV from clotting.\nA total of 79 loops were studied, of which 15 loops from 8 animals served as controls. Each of the control loops were injected intraluminally with 1 mL of a sterile PBS solution. The remaining 64 loops were injected intraluminally with 20 μg/500 μL of Toxin A (TechLab) and combined with either 500 μL PBS (Toxin A and Toxin A/Adenosine groups) or 500 μL of a […], 30 mM, 10 mM, or 3 mM alanyl-glutamine solution (Toxin A/Alanyl-glutamine and Toxin A/Adenosine/Alanyl-glutamine groups). The ileal loops were replaced intraperitoneally and the abdomimal incision was sutured. Sedation continued throughout the procedure and were euthanized after 4 hours.\nMeasurement of intestinal secretion: After 4 hours of incubation, the animals were euthanized and the ligated loops were immediately removed. The length of each loop was measured and incised and the intraluminal secretion was quantified. The volume to length ratio (V:L) was measured as milliliters per centimeter per loop. The gross description of intestinal fluid (serous, serosanguinous, hemorrhagic or purulent) was documented.", "remark": "listed apart in the source"}, "[4]": {"system": "Clostridium difficile toxin A (TxA)-induced histological alterations", "experiment": "Histological grading of ileal inflammation, murine ileal loops", "format": "in vivo, mice", "description": "(§1) Mice were fasted overnight, but allowed access to water, and then anesthetized with ketamine and xylazine (60 and 5 mg/Kg intramuscularly, respectively). Through a midline laparotomy, one 4-cm ileal loop was ligated and injected with either 0.1 ml of PBS pH 7.4 (control) or buffer containing TxA (1-10 μg). The abdomen was closed, and the animals were allowed to regain consciousness. Three hours after administration of TxA, mice were sacrificed and the intestinal loops were removed. The loop length, weight, and fluid volume were recorded. A portion of the loop was frozen at −70° C. for measurement of myeloperoxidase (MPO) and ADA activities and TNF-α concentration. The remaining tissue was fixed in 10% formalin and embedded in paraffin, and sections were stained with hematoxylin and eosin for histological grading of ileal inflammation. Some mice were injected with ATL 313 ([…] final concentration) immediately followed by PBS or TxA (5 μg); another group was injected with ZM241385 (5 nM), the selective A2A AR antagonist, immediately followed by PBS or ATL 313 (5 nM)+TxA (5 μg) in the ileal loop. In another experiment, TxA (5 μg) was injected into the ileal loop, the abdomen was closed, and, 30 min later, the abdomen was reopened and ATL 313 (5 nM) administered.\nThe severity of inflammation was scored in coded slides by a pathologist on a scale of 1 (mild) to 3 (severe) for epithelial damage, edema, and neutrophil infiltration."}, "[5]": {"system": "murine ileal loops injected with Clostridium difficile toxin A (TxA)", "experiment": "TxA-induced enteritis in ligated murine ileal loops: loop weight and secretion volume", "format": "in vivo, mice", "description": "For this study, 174 male Swiss mice, 25-30 g body weight, from the animal colony of the Federal University of Ceara were used. The animals received water and food ad libitum.\nas §1"}, "[6]": {"system": "Clostridium difficile toxin A-induced TNF-α production", "experiment": "Quantification of TNF-α by ELISA in ileal tissue", "format": "in vivo, mice", "conditions": "ZM241385 + ATL 313 + TxA", "description": "as §1, with “In another experiment, TxA (5 μg) was injected into the ileal loop, the abdomen was closed, and, 30 min later, the abdomen was reopened and ATL 313 (5 nM) administered.” left out\nIleal tissue was harvested from animals in order to measure TNF-α concentration by enzyme-linked immunosorbent assay (ELISA). The results are expressed as pg/mL of TNF-α."}, "[7]": {"conditions": "ZM241385 5 nM + ATL 313 5 nM + TxA 5 μg"}}, "note": "Peptide text beside a SMILES is read from it."}
{"smiles": "CCNC(=O)C1OC(n2cnc3c(N)nc(C#CCC4CCC(C(=O)OC)CC4)nc32)C(O)C1O", "note": "(stereo not drawn) [ATL 146e, 4-{3-[6-Amino-9-(5-ethylcarbamoyl-3,4-dihydroxy-tetrahydro-furan-2-yl)-9H-purin-2-yl]-prop-2-ynyl}-cyclohexanecarboxylic acid methyl ester]", "values": [{"measurement": "inflammation induced by toxin A (histology score 0 to 4)", "setting": "[1]", "result": "reduced"}, {"measurement": "toxin A-induced secretion (volume to length ratio)", "setting": "[1]", "result": "not consistently ameliorated"}]}
{"smiles": "Nc1nc(C#CCC2CCN(C(=O)Oc3ccc(Cl)cc3)CC2)nc2c1ncn2C1OC(C(=O)NC2CC2)C(O)C1O", "note": "(stereo not drawn) [ATL 370, 4-{3-[6-Amino-9-(5-cyclopropylcarbamoyl-3,4-dihydroxy-tetrahydro-furan-2-yl)-9H-purin-2-yl]-prop-2-ynyl}-piperidine-1-carboxylic acid 4-chloro-phenyl ester]", "values": [{"measurement": "V:L ratio", "setting": "[2]; ATL 370 IV + toxin A + alanyl-glutamine 100 mM, n=4, p<0.001 vs toxin A", "result": 0.05, "unit": "mL/cm"}, {"measurement": "V:L ratio", "setting": "[3]; ATL 370 IV 1.5 ug x 2 doses + intraluminal toxin A only, n=8, p=0.35 vs toxin A", "result": 0.44, "unit": "mL/cm"}, {"measurement": "V:L ratio", "setting": "[3]; ATL 370 IV + toxin A + alanyl-glutamine 3 mM", "result": 0.21, "unit": "mL/cm"}, {"measurement": "V:L ratio", "setting": "[3]; ATL 370 IV + toxin A + alanyl-glutamine 10 mM", "result": 0.20, "unit": "mL/cm"}, {"measurement": "V:L ratio", "setting": "[3]; ATL 370 IV + toxin A + alanyl-glutamine 30 mM", "result": 0.14, "unit": "mL/cm"}, {"measurement": "loops purulent", "setting": "[3]; ATL 370 IV + toxin A + alanyl-glutamine, all doses (7/16)", "result": 44, "unit": "%"}, {"measurement": "number of hemorrhagic loops", "setting": "[3]; ATL 370 IV + toxin A + alanyl-glutamine, all doses (16 loops)", "result": "one"}, {"measurement": "loops either hemorrhagic or purulent", "setting": "[3]; ATL 370 IV + toxin A only (10/16)", "result": 63, "unit": "%"}]}
{"smiles": "CCNC(=O)C1OC(n2cnc3c(N)nc(C#CCC4CCC(COC(C)=O)CC4)nc32)C(O)C1O", "note": "(stereo not drawn) [JMR 193, Acetic acid 4-{3-[6-amino-9-(5-ethylcarbamoyl-3,4-dihydroxy-tetrahydro-furan-2-yl)-9H-purin-2-yl]-prop-2-ynyl}-cyclohexylmethyl ester]", "values": [{"measurement": "inflammation induced by toxin A (histology score 0 to 4)", "setting": "[1]", "result": "reduced"}, {"measurement": "toxin A-induced secretion (volume to length ratio)", "setting": "[1]", "result": "not consistently ameliorated"}]}
{"smiles": "Nc1nc(NCCc2ccc(O)cc2)nc2nc(-c3ccco3)nn12", "note": "[ZM241385, 4-[2-(7-Amino-2-furan-2-yl-[1,2,4]triazolo[1,5-a][1,3,5]triazin-5-ylamino)-ethyl]-phenol, reference compound]", "values": [{"measurement": "median injury score", "setting": "[4]; ZM241385 + ATL 313 + TxA, median, range", "result": 2.5}, {"measurement": "median injury score", "setting": "[4]; compound alone, no TxA, median(range)", "result": "0(0-0)"}, {"measurement": "secretion volume/ileal loop length ratio", "setting": "[5]; [7]", "result": "significantly reversed the protective effect of ATL 313"}, {"measurement": "weight/ileal loop length ratio", "setting": "[5]; [7]", "result": "significantly reversed the protective effect of ATL 313"}, {"measurement": "secretion volume/ileal loop length", "setting": "[5]; ZM241385 alone, no TxA, PBS=1.25±1.25", "result": "0.0 ± 0.0", "unit": "µL/cm"}, {"measurement": "weight/ileal loop length", "setting": "[5]; ZM241385 alone, no TxA, PBS=34.5±3.2", "result": "19.9 ± 0.9", "unit": "mg/cm"}, {"measurement": "TNF-α production in ileal tissue", "setting": "[6]", "result": "blocked ATL313 action"}]}
{"smiles": "C[C@H](N)C(=O)N[C@@H](CCC(N)=O)C(=O)O", "note": "[alanyl-glutamine] (H-Ala-Gln-OH)", "values": [{"measurement": "V:L ratio", "setting": "[2]; toxin A mixed with alanyl-glutamine 100 mM, intraluminal, 4 hours", "result": 0.44, "unit": "mL/cm"}, {"measurement": "V:L ratio", "setting": "[3]; toxin A mixed with alanyl-glutamine 3 mM, intraluminal, 4 hours", "result": 0.96, "unit": "mL/cm"}, {"measurement": "V:L ratio", "setting": "[3]; toxin A mixed with alanyl-glutamine 10 mM, intraluminal, 4 hours", "result": 0.84, "unit": "mL/cm"}, {"measurement": "V:L ratio", "setting": "[3]; toxin A mixed with alanyl-glutamine 30 mM, intraluminal, 4 hours", "result": 0.67, "unit": "mL/cm"}, {"measurement": "loops hemorrhagic, purulent, or a combination of the two", "setting": "[3]; toxin A/alanyl-glutamine loops (11/15)", "result": 73, "unit": "%"}]}
